The subject of data set [1] is stably transfected cell line. Briefly: neutral red cellular toxicity check of the cultures. Type of data set: cell-based. Particulars: neutral red 3 hours at 37° C., read at 540 nm. How it is done: On another batch of plates not treated with Steady Glo, the state of the cultures is checked by microscope. The culture medium is removed and 100 μl of medium comprising neutral red are added for 3 hours at 37° C.
The medium is then removed and replaced for one minute with 100 μl of formaldehyde-calcium (10 ml of 37% formaldehyde+calcium chloride dihydrate 10 g qs 1 L).
The plate is emptied and 100 μl of acetic acid-ethanol mixture (10 ml of glacial acetic acid+500 ml of absolute ethanol qs 1 L) are added to each well for 15 minutes with stirring.
The plates are then read at 540 nm. The stronger the coloration, […].

For a further data set, the system named is human CETP promoter. Briefly: luciferase reporter under the control of the human CETP promoter, inhibition of CETP expression. Particulars: final concentration of 15 μM, incubated overnight, Steady Glo luciferase read by luminometer. Type of data set: cell-based. How it is done: The stably transfected cell line (luciferase under the control of the human CETP promoter) is maintained in the growth medium (DMEM/Hepes, F12, Glutamax, FBS and geneticin) incubated at 37° C., 95% humidity and 5% CO2 to the point of confluence. The cells are then rinsed with PBS and detached with a trypsin/EDTA mixture. The medium is changed every 2 to 3 days.
The resuspended cells are diluted and counted, and then distributed in microplate (96) wells.
About 20 000 cells per well are distributed and incubated overnight at 37° C. with 5% CO2.
The compounds of the present invention are diluted to a final concentration of 15 μM and distributed in the plates containing the cells.
The plates are incubated overnight at 37° C. with 5% CO2.
The medium covering the cells is drawn off and 100 μl of Steady Glo luciferase (DMEM without phenol red/Steady Glo, V/V) are added to the cells.
The plates are sealed with a film and left in the dark for about 20 minutes at room temperature.
The plates are then read using a luminometer (1 sec/well).
The inhibition of CETP expression by the products is expressed as a percentage of the control: […]
(In general: Reporter assays use an easily measured gene product as a stand-in for the process of interest.)

As to `CCC1CCCCN1C(=Nc1ccc(OCc2ccc(C(C)(C)C)cc2)cc1)NCCCN` (centres unmarked) [Example 61, N-(3-Aminopropyl)-N′-[4-(4-tert-butylbenzyloxy)phenyl]-2-ethylpiperidine-1-carboxamidine], the cellular toxicity entry in data set [1] is “No cellular toxicity is detected”. In addition, the “activity expressed as a percentage of the control” value with human CETP promoter is 33%.
On the same counts, the results for `NCCCNC(=Nc1ccc(OCCCC(F)(F)F)cc1)N1CCC(Cc2ccccc2)CC1` [Example 95, N-(3-Aminopropyl)-4-benzyl-N′-[4-(4,4,4-trifluorobutoxy)phenyl]piperidine-1-carboxamidine] are “No cellular toxicity is detected” and 16%.
On the same counts, the results for `COCCOc1ccc(N=C(NCCCN)N2CCC(C)CC2)cc1` [Example 31, N-(3-Aminopropyl)-N′-[4-(2-methoxyethoxy)phenyl]-4-methylpiperidine-1-carboxamidine] are “No cellular toxicity is detected” and 30%.
The like results for `CC(C)CCN=C(NCC(C)(C)CN)Nc1ccc(OCc2ccccc2)cc1` [Example 5, N-(3-Amino-2,2-dimethylpropyl)-N′-(4-benzyloxyphenyl)-N″-(3-methylbutyl)-guanidine] were, in that order, “No cellular toxicity is detected” and 46%.

Source of the values: US7582656B2, “Guanidine derivatives and therapeutic uses thereof” (Merck Patent Gesellschaft, priority 2004, dated 2009).
